Assay results published in the METLIN SMRT retention time set (Domingo-Almenara et al. 2019).

Experiment: gradient 5% acetonitrile 3 min, to 50% in 2 min, to 85% in 15 min, held 3 min, 100 µL/min
Settings: column: Zorbax Extend-C18 2.1 x 50 mm; eluents: water / acetonitrile, 0.1% formic acid
How it was run: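 Retention time was recorded from adduct peaks, which were picked computationally and each inspected manually. Pure standards ran in mixtures of ~100 molecules on HPLC coupled to a quadrupole time-of-flight mass spectrometer, in positive and negative ionization mode, through a Zorbax Extend-C18 column (2.1 × 50 mm, 1.8 μm) at 100 μL/min. Eluents were water and acetonitrile, each with 0.1% formic acid.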

Row | RP-LC retention time [s] | Structure (SMILES)
1 | 807 | Cc1ccc2c(Nc3ccc(C)c(F)c3)c(-c3nc(C)no3)cnc2n1
2 | 787 | CC(C)CC(=O)Nc1nc(-c2ccc3c(c2)NC(=O)CO3)cs1
3 | 806 | COc1ccc(S(=O)(=O)N2CCC(c3nc(C(=O)N(C)C)c(C)o3)CC2)cc1Cl
4 | 570 | Cc1nnc2c(=O)n(CC(=O)NCc3ccc(N(C)C)cc3)c3cccnc3n12
5 | 853 | COCCN1C(=O)c2cc(-c3ccc(OC)cc3)nn2CC1(C)C(=O)NCc1ccccc1OC (configuration not stated)
6 | 860 | O=C(CCn1nnc2cc(-c3noc(Cc4ccccc4Br)n3)ccc21)N1CCOCC1
7 | 800 | O=C(NCc1ccc(Cl)cc1)C1CCCN(S(=O)(=O)c2c[nH]c(C(=O)N3CCCC3)c2)C1 (configuration not stated)
8 | 672 | CN(Cc1ccco1)C(=O)c1ccc(-n2cc(CNC(=O)C3CCC3)cn2)cc1
9 | 1000 | CCn1cc(-c2nc(C(=O)Nc3ccc(F)cc3C)cs2)c2cccnc21
10 | 906 | O=C(CCC(=O)N1CC2CCCN2c2ccccc21)NCCc1cccs1 (configuration not stated)
11 | 639 | COc1ccc(N2CCN(C(=O)Cn3nc4nc(N5CCCC5)ccn4c3=O)CC2)cc1
12 | 922 | Cc1ccc(Cl)cc1N1CCN(C(=O)C2CC(=O)c3ccccc32)CC1 (configuration not stated)
13 | 976 | CCc1ccc(NC(=O)N2CCCC2c2nc(-c3ccccc3OC)no2)cc1 (configuration not stated)
14 | 869 | COc1ccc(-c2ccnc3nc(C4CCC4)nn23)c(F)c1
15 | 986 | CC(C)N1C(=O)C(C)(C(=O)Nc2ccc(F)cc2)Oc2cccnc21 (configuration not stated)
16 | 659 | O=C(Cn1nc2c(N3CCCCCC3)nccn2c1=O)NCc1ccc2c(c1)OCO2
17 | 842 | CCOc1ccc(CC(=O)N2CCCN(c3cc(-c4ccc(Br)cc4)[nH]n3)CC2)cc1OCC
18 | 1000 | Cc1ccc(-c2noc(C3CCCN3C(=O)c3ccc4c(c3)OCO4)n2)cc1 (configuration not stated)
19 | 1040 | COc1ccc(-c2nc(C3CC(=O)N(c4ccc(C)cc4)C3)no2)c(OC)n1 (configuration not stated)
20 | 538 | Cn1cc(OCc2ccccc2)c(=O)cc1C(=O)N1CCN(c2ccccn2)CC1
21 | 960 | CCOC(=O)c1ccc(NC2=NS(=O)(=O)C(c3ccccc3)=C2C)cc1
22 | 797 | COc1ccc(-c2cn3c(CC(=O)N4c5ccccc5CC4C)csc3n2)cc1OC (configuration not stated)

Further lines, the compound ahead of its results:

Row | Structure (SMILES) | RP-LC retention time [s]
23 | CCNC(=O)C1CCN(S(=O)(=O)c2cc(C(=O)N(C)C)cs2)CC1 | 624
24 | O=C(Cc1nnc(-c2ccccc2)o1)NCC1CC1 | 684
25 | CN(C)S(=O)(=O)N1CCC2(CC1)CN(c1cccc(F)c1)C2c1ccccc1 (configuration not stated) | 1250
26 | O=C(C1CCC1)N1CCCC(CN2CCOCC2)CC1 (configuration not stated) | 574
27 | O=C(Nc1nccs1)C1CCCN(c2ncnc3c2nc2n3CCCCC2)C1 (configuration not stated) | 730
28 | Cc1cc(C)c(CNS(=O)(=O)c2cc(-c3nc(C)c(C)s3)cs2)c(C)c1 | 1310
29 | CCn1cc(C(=O)NCCC(C)C)c2nn(-c3ccccc3)c(=O)c-2c1 | 878
30 | CCOc1ccc(S(=O)(=O)N2CCN(c3cnn4c(C)nnc4c3)CC2)cc1 | 714
31 | CN(C)c1nc(Cl)nc2c1nc(Cl)n2C1CCCCO1 (configuration not stated) | 1130
32 | O=C(CN1C(=O)CCCc2cc(S(=O)(=O)N3CCOCC3)ccc21)N1CCc2ccccc2C1 | 786
33 | CCOC(=O)c1cc2c(cn1)[nH]c1ccccc12 | 691
34 | COc1ccc(NC(=O)Cc2csc3nc(-c4ccccc4)cn23)cc1OC | 703
35 | CCOc1ccc(N2CC(C#N)=C3c4cc(OC)c(OC)cc4CCN3C2)cc1 | 848
36 | CN(C)C(=O)c1csc(S(=O)(=O)N2CCC(C(=O)NCc3cccnc3)CC2)c1 | 579
37 | COc1ccccc1NC(=O)C1=C(C)NC(=O)NC1c1cccs1 (configuration not stated) | 665
